Here are results for 47 molecules from paper PMC11995724, “Antibiotic target discovery by integrated phenotypic and activity-based profiling of electrophilic fragments” (Cell chemical biology, 2025).

The nature of this series: in vitro. The following applies: human, hek293t cells.
One may read the viability as a read-out of living cells in per cent, often relative to untreated cells. Take `C=CC(=O)N1CC(c2ncon2)C1` [2-I03, 1-[3-(1,2,4-oxadiazol-3-yl)azetidin-1-yl]prop-2-en-1-one]: the viability at 48 h, 25 µM came to 181%. With `C=CC(=O)N1CCC(C(=O)N2CCn3ccnc32)CC1` [2-I04, 1-(4-{1H,2H,3H-[1,3]diazolo[1,2-a]imidazole-1-carbonyl}piperidin-1-yl)prop-2-en-1-one] the figure was 99.3%. For the molecule `C=CC(=O)NCCN1CCOCC1C` (centres unmarked) [2-I05, N-[2-(3-methylmorpholin-4-yl)ethyl]prop-2-enamide], the viability at 48 h, 25 µM was 79.2%. Turning to `C=CC(=O)N1CCC(c2nnnn2C)CC1` [2-I06, 1-[4-(1-methyl-1H-1,2,3,4-tetrazol-5-yl)piperidin-1-yl]prop-2-en-1-one], the viability at 48 h, 25 µM was determined as 95.6%. With `C=CC(=O)N1CCOC(c2ccccc2)C1` (centres unmarked) [2-I07, 1-(2-phenylmorpholin-4-yl)prop-2-en-1-one] the figure was 118%; with `C=CC(=O)N(CC1CCOCC1)C1CC1` [2-I08, N-cyclopropyl-N-[(oxan-4-yl)methyl]prop-2-enamide], 88%.

On to `C=CC(=O)NC[C@@H]1C[C@H](F)CN1Cc1csc(C)n1` [2-I09, N-{[(2S,4S)-4-fluoro-1-[(2-methyl-1,3-thiazol-4-yl)methyl]pyrrolidin-2-yl]methyl}prop-2-enamide], for which the viability at 48 h, 25 µM is 192%. With `C=CC(=O)N1CCC(c2cnn(C)c2)CC1` [2-I10, 1-[4-(1-methyl-1H-pyrazol-4-yl)piperidin-1-yl]prop-2-en-1-one] the figure was 83.2%; with `C=CC(=O)NC(C)c1nnnn1-c1ccccc1` (centres unmarked) [2-I11, N-[1-(1-phenyl-1H-1,2,3,4-tetrazol-5-yl)ethyl]prop-2-enamide], 196%. `C=CC(=O)NCCNC(=O)c1c(C)cc(C)nc1C` [2-I12, N-{2-[(2,4,6-trimethylpyridin-3-yl)formamido]ethyl}prop-2-enamide]: the viability at 48 h, 25 µM stood at 104%.

For the molecule `C=CC(=O)NCc1cn(-c2ccccc2)nn1` [2-I13, N-[(1-phenyl-1H-1,2,3-triazol-4-yl)methyl]prop-2-enamide], the viability at 48 h, 25 µM was found to be 76.1%. With `C=CC(=O)N1CCC(C(=O)N(C)Cc2ccon2)CC1` [2-I14, N-methyl-N-[(1,2-oxazol-3-yl)methyl]-1-(prop-2-enoyl)piperidine-4-carboxamide], the viability at 48 h, 25 µM worked out at 90.3%. As for `C=CC(=O)N1CCC(c2ccnn2C)CC1` [2-I15, 1-[4-(1-methyl-1H-pyrazol-5-yl)piperidin-1-yl]prop-2-en-1-one], the viability at 48 h, 25 µM amounted to 96.5%. With `C=CC(=O)NC1CC2(CCC(C(=O)O)CC2)C1` (centres unmarked) [2-I16, 2-(prop-2-enamido)spiro[3.5]nonane-7-carboxylic acid] the figure was 92.8%; with `C=CC(=O)NC(c1nc(C)cs1)C(F)(F)F` (centres unmarked) [2-I17, N-[2,2,2-trifluoro-1-(4-methyl-1,3-thiazol-2-yl)ethyl]prop-2-enamide], 102%. Regarding `C=CC(=O)Nc1cccc(C(=O)C(C)(C)C)c1` [2-I18, N-[3-(2,2-dimethylpropanoyl)phenyl]prop-2-enamide], the viability at 48 h, 25 µM was found to be 105%. As to `C=CC(=O)N1CC2(CCCC2)CC1CO` (centres unmarked) [2-I19, 1-[3-(hydroxymethyl)-2-azaspiro[4.4]nonan-2-yl]prop-2-en-1-one], the viability at 48 h, 25 µM came to 82.4%. Regarding `C=CC(=O)N(C)CC(=O)NCc1c(O)nnc(C)c1C` [2-I20, N-({[(3-hydroxy-5,6-dimethylpyridazin-4-yl)methyl]carbamoyl}methyl)-N-methylprop-2-enamide], the viability at 48 h, 25 µM was determined as 91.6%. As for `C=CC(=O)Nc1ccc(C(=O)N2CCCC2C(=O)NC2CC2)cc1` (centres unmarked) [2-I21, N-cyclopropyl-1-[4-(prop-2-enamido)benzoyl]pyrrolidine-2-carboxamide], the viability at 48 h, 25 µM was found to be 175%.

On to `C=CC(=O)Nc1ccc(N2CCCCC2)c(F)c1` [2-I22, N-[3-fluoro-4-(piperidin-1-yl)phenyl]prop-2-enamide], for which the viability at 48 h, 25 µM came to 92.5%. In the case of `C=CC(=O)NCC1CCc2nnc(C(C)C)n2C1` (centres unmarked) [2-J03, N-{[3-(propan-2-yl)-5H,6H,7H,8H-[1,2,4]triazolo[4,3-a]pyridin-6-yl]methyl}prop-2-enamide], the viability at 48 h, 25 µM came out at 60.6%. With `C=CC(=O)N(C)CC(=O)N1CCOC(c2ccccc2Cl)C1` (centres unmarked) [2-J04, N-{2-[2-(2-chlorophenyl)morpholin-4-yl]-2-oxoethyl}-N-methylprop-2-enamide], the viability at 48 h, 25 µM is 72.1%. On to `C=CC(=O)NC(C)C(c1ccccc1Cl)n1cccn1` (centres unmarked) [2-J05, N-[1-(2-chlorophenyl)-1-(1H-pyrazol-1-yl)propan-2-yl]prop-2-enamide], for which the viability at 48 h, 25 µM was found to be 84.5%. With `C=CC(=O)N1CCC(C(=O)N2CCC(Cc3ncon3)CC2)CC1` [2-J06, 1-(4-{4-[(1,2,4-oxadiazol-3-yl)methyl]piperidine-1-carbonyl}piperidin-1-yl)prop-2-en-1-one] the figure was 74.2%; with `C=CC(=O)NCc1c(Cl)c(C(F)(F)F)nn1C` [2-J07, N-{[4-chloro-1-methyl-3-(trifluoromethyl)-1H-pyrazol-5-yl]methyl}prop-2-enamide], 72.8%; with `C=CC(=O)N1CCC(C(=O)N[C@H]2CC[C@@H](S(C)(=O)=O)CC2)CC1` [2-J08, 1-(prop-2-enoyl)-N-[(1s,4s)-4-methanesulfonylcyclohexyl]piperidine-4-carboxamide], 86.3%. With `C=CC(=O)N1CCC(C(=O)Nc2cccc(-c3n[nH]c(C)n3)c2)CC1` [2-J09, N-[3-(5-methyl-1H-1,2,4-triazol-3-yl)phenyl]-1-(prop-2-enoyl)piperidine-4-carboxamide] the figure was 58.8%. With `C=CC(=O)N1CCC(C(=O)N2CCCC(C)(CC)C2)CC1` (centres unmarked) [2-J10, 1-[4-(3-ethyl-3-methylpiperidine-1-carbonyl)piperidin-1-yl]prop-2-en-1-one] the figure was 67.4%; with `C=CC(=O)NCC(O)c1ncccc1OC` (centres unmarked) [2-J11, N-[2-hydroxy-2-(3-methoxypyridin-2-yl)ethyl]prop-2-enamide], 80.8%; with `C=CC(=O)N1CCC(C(=O)N(C)CCn2cccn2)CC1` [2-J12, N-methyl-1-(prop-2-enoyl)-N-[2-(1H-pyrazol-1-yl)ethyl]piperidine-4-carboxamide], 74.5%. For `C=CC(=O)N(C)Cc1cn(C2CC2)cn1` [2-J13, N-[(1-cyclopropyl-1H-imidazol-4-yl)methyl]-N-methylprop-2-enamide], the viability at 48 h, 25 µM came to 76.5%. Consider `C=CC(=O)N1CCC(C(=O)N2CCC(CC(N)=O)C2)CC1` (centres unmarked) [2-J14, 2-{1-[1-(prop-2-enoyl)piperidine-4-carbonyl]pyrrolidin-3-yl}acetamide], for which the viability at 48 h, 25 µM amounted to 65%. In the case of `C=CC(=O)NCc1ccsc1S(N)(=O)=O` [2-J15, N-[(2-sulfamoylthiophen-3-yl)methyl]prop-2-enamide], the viability at 48 h, 25 µM was 53.1%. For the molecule `C=CC(=O)N(CC)CC(=O)N1CC(C)(C)C1c1nccn1C` (centres unmarked) [2-J16, N-{2-[3,3-dimethyl-2-(1-methyl-1H-imidazol-2-yl)azetidin-1-yl]-2-oxoethyl}-N-ethylprop-2-enamide], the viability at 48 h, 25 µM was 59.5%.

In the case of `C=CC(=O)NC1(Cn2cccn2)CC(F)(F)C1` [2-J17, N-{3,3-difluoro-1-[(1H-pyrazol-1-yl)methyl]cyclobutyl}prop-2-enamide], the viability at 48 h, 25 µM was found to be 54.5%. Consider `C=CC(=O)NCCNC(=O)[C@@]12CC[C@@](C)(C(=O)O1)C2(C)C` [2-J18, N-(2-{[(1S,4R)-4,7,7-trimethyl-3-oxo-2-oxabicyclo[2.2.1]heptan-1-yl]formamido}ethyl)prop-2-enamide], for which the viability at 48 h, 25 µM was found to be 52.8%. With `C=CC(=O)NC1CCS(=O)(=O)c2ccc(F)cc21` (centres unmarked) [2-J19, N-(6-fluoro-1,1-dioxo-3,4-dihydro-2H-1lambda6-benzothiopyran-4-yl)prop-2-enamide] the figure was 55.4%; with `C=CC(=O)NCc1ccc(C(=O)N2CCC(C(C)(C)O)CC2)cc1` [2-J20, N-({4-[4-(2-hydroxypropan-2-yl)piperidine-1-carbonyl]phenyl}methyl)prop-2-enamide], 74.2%.

On to `C=CC(=O)N1CCC(c2nnc3n2CCCC3)CC1` [2-J21, 1-(4-{5H,6H,7H,8H-[1,2,4]triazolo[4,3-a]pyridin-3-yl}piperidin-1-yl)prop-2-en-1-one], for which the viability at 48 h, 25 µM came out at 67.6%. `C=CC(=O)N(C)CC(=O)N1CCN(C(=O)c2cccc(O)c2)CC1` [2-J22, N-{2-[4-(3-hydroxybenzoyl)piperazin-1-yl]-2-oxoethyl}-N-methylprop-2-enamide]: the viability at 48 h, 25 µM was determined as 97.7%. On to `C=CC(=O)N1CCC(c2nc(C(=O)O)co2)CC1` [2-K03, 2-[1-(prop-2-enoyl)piperidin-4-yl]-1,3-oxazole-4-carboxylic acid], for which the viability at 48 h, 25 µM came to 99.1%. For the molecule `C=CC(=O)N1CCC(C(=O)N[C@H]2CCC[C@H]2O)CC1` [2-K04, N-[(1S,2R)-2-hydroxycyclopentyl]-1-(prop-2-enoyl)piperidine-4-carboxamide], the viability at 48 h, 25 µM turned out to be 84.2%. With `C=CC(=O)N(Cc1ccc(Cl)o1)C1CCCC12CCOCC2` (centres unmarked) [2-K05, N-[(5-chlorofuran-2-yl)methyl]-N-{8-oxaspiro[4.5]decan-1-yl}prop-2-enamide] the figure was 99.7%; with `C=CC(=O)N1C2CCCC1CC1(C2)NC(=O)NC1=O` (centres unmarked) [2-K06, 9-(prop-2-enoyl)-9-azaspiro[bicyclo[3.3.1]nonane-3,4'-imidazolidine]-2',5'-dione], 89.2%.

Take `C=CC(=O)N1CCCCC1Cn1ccnn1` (centres unmarked) [2-K07, 1-{2-[(1H-1,2,3-triazol-1-yl)methyl]piperidin-1-yl}prop-2-en-1-one]: the viability at 48 h, 25 µM is 89.3%.

As for `C=CC(=O)NCCC(=O)N1CCSC(C)CC1` (centres unmarked) [2-K08, N-[3-(7-methyl-1,4-thiazepan-4-yl)-3-oxopropyl]prop-2-enamide], the viability at 48 h, 25 µM was 91.8%. As for `C=CC(=O)N1CCC(c2nc(N(C)C)no2)CC1` [2-K09, 1-{4-[3-(dimethylamino)-1,2,4-oxadiazol-5-yl]piperidin-1-yl}prop-2-en-1-one], the viability at 48 h, 25 µM is 194%.
